# Test results taken from patent US20020031795A1, “Nitrocoumarins for detecting all micro-organisms” (priority 1998, published 2002).
# “Also recorded” adds a separate entry of the source.
# How the values were obtained:
# Format in all cases: cell-based
# [1] = test system: Enterobacteriaceae, non-fermenting Gram-positive bacilli, Staphylococcus spp., Streptococcus spp., Listeria spp. and yeasts; assay: Reduction of nitrocoumarin derivatives by most microorganisms (results not presented)
# [2] = test system: Escherichia coli (NCTC 10418); assay: Growth of E. coli in Mueller-Hinton broth in the presence of nitrocoumarins (optical density 690 nm)
# Description: A sample of the 7-nitrocoumarin derivative is dissolved in 4 ml of hot, distilled water. The mass dissolved to make the stock solution is such that the final concentration of the compound in the assay is 0.105 mmol/l. This solution is added to 96 ml of Mueller-Hinton broth and the mixture is sterile-filtered.
# The E. coli was grown for 24 hours at 35° C. on Columbia agar supplemented with sheep blood. The bacteria were then resuspended in sterile, distilled water and their density was adjusted to 0.5 on the MacFarland scale (i.e. about 10^8 cells/ml). This suspension was then diluted 100-fold in sterile Mueller-Hinton broth (i.e. to a final density of about 10^6 cells/ml).
# Fifty microliters of each nitrocoumarin solution plus 50 μl of bacterial suspension were then added to the wells of a microtiter plate. The plates were incubated at 35° C. and the optical density and fluorescence of each well was read every 30 min for a total of 4 hours. Optical density (690 nm) readings were made using an Anthos 2001 spectrophotometer (Labtech International Limited), and fluorescence (excitation at 365 nm and emission at 440 nm) readings were made on a Biolite F1 2001 fluorometer (Labtech International Limited).
# The effect of the concentration of 7-nitrocoumarin-3-carboxylic acid on the sensitivity of the assay to detect E. coli (NCTC strain 10418) was investigated at concentrations of the indicator ranging from 0 to 0.262 mmol/l. All other conditions were identical to those described in section A above.
# [3] = test system: Candida albicans (ATCC 90028); assay: Fluorescence after 24 hours, serial dilutions in Trypticase Soy broth; settings: for Fluorescence reading: 24 hours
# Description: This experiment was performed to test 7-nitrocoumarin-3-carboxylic acid on sixteen (16) different types of microorganism, including one yeast species.
# A mass of 10 mg of the indicator was dissolved in 4 ml of hot, distilled water and this solution was then added to 96 ml of Trypticase Soy broth. The resultant mixture was sterile-filtered.
# […] Each culture was then diluted 1,000-fold in Trypticase Soy broth and then serial 10-fold dilutions were made in more Trypticase Soy broth until the test aliquot contained no more microbial cells.
# The resultant dilutions ranged from 10^−3 to 10^−13.
# Fifty microliters of each dilution plus 50 μl of Trypticase Soy broth were added to wells of a microtiter plate with or without 7-nitrocoumarin-3-carboxylic acid.
# The plates were read (T zero) and then incubated at 35° C. before being read again after 24 hours. Two different readings were made at each time point:
# of the fluorescence (excitation at 365 nm and emission at 440 nm), using a Biolite F1 2001 fluorometer (Labtech International Limited), for wells containing 7-nitrocoumarin-3-carboxylic acid.
smiles,measurement,setting,value
O=C(O)c1cc2ccc([N+](=O)[O-])cc2oc1=O [7-nitrocoumarin-3-carboxylic acid],Reduction to give a fluorescent signal (in words),[1],All were capable of reducing
same,Optical density (690 nm),"[2]; 0.005 mmol/l, 0 min",0.000
same,Optical density (690 nm),"[2]; 0.005 mmol/l, 30 min",0.000
same,Optical density (690 nm),"[2]; 0.005 mmol/l, 60 min",0.003
same,Optical density (690 nm),"[2]; 0.005 mmol/l, 90 min",0.011
same,Optical density (690 nm),"[2]; 0.005 mmol/l, 120 min",0.034
same,Optical density (690 nm),"[2]; 0.005 mmol/l, 150 min",0.090
same,Optical density (690 nm),"[2]; 0.005 mmol/l, 180 min",0.155
same,Optical density (690 nm),"[2]; 0.005 mmol/l, 210 min",0.246
same,Optical density (690 nm),"[2]; 0.005 mmol/l, 240 min",0.411
same,Optical density (690 nm),"[2]; 0.013 mmol/l, 0 min",0.000
same,Optical density (690 nm),"[2]; 0.013 mmol/l, 30 min",0.000
same,Optical density (690 nm),"[2]; 0.013 mmol/l, 60 min",0.003
same,Optical density (690 nm),"[2]; 0.013 mmol/l, 90 min",0.011
same,Optical density (690 nm),"[2]; 0.013 mmol/l, 120 min",0.032
same,Optical density (690 nm),"[2]; 0.013 mmol/l, 150 min",0.088
same,Optical density (690 nm),"[2]; 0.013 mmol/l, 180 min",0.149
same,Optical density (690 nm),"[2]; 0.013 mmol/l, 210 min",0.233
same,Optical density (690 nm),"[2]; 0.013 mmol/l, 240 min",0.371
same,Optical density (690 nm),"[2]; 0.026 mmol/l, 0 min",0.000
same,Optical density (690 nm),"[2]; 0.026 mmol/l, 30 min",0.001
same,Optical density (690 nm),"[2]; 0.026 mmol/l, 60 min",0.004
same,Optical density (690 nm),"[2]; 0.026 mmol/l, 90 min",0.011
same,Optical density (690 nm),"[2]; 0.026 mmol/l, 120 min",0.032
same,Optical density (690 nm),"[2]; 0.026 mmol/l, 150 min",0.079
same,Optical density (690 nm),"[2]; 0.026 mmol/l, 180 min",0.201
same,Optical density (690 nm),"[2]; 0.026 mmol/l, 210 min",0.290
same,Optical density (690 nm),"[2]; 0.026 mmol/l, 240 min",0.436
same,Optical density (690 nm),"[2]; 0.052 mmol/l, 0 min",0.000
same,Optical density (690 nm),"[2]; 0.052 mmol/l, 30 min",0.001
same,Optical density (690 nm),"[2]; 0.052 mmol/l, 60 min",0.003
same,Optical density (690 nm),"[2]; 0.052 mmol/l, 90 min",0.011
same,Optical density (690 nm),"[2]; 0.052 mmol/l, 120 min",0.031
same,Optical density (690 nm),"[2]; 0.052 mmol/l, 150 min",0.082
same,Optical density (690 nm),"[2]; 0.052 mmol/l, 180 min",0.153
same,Optical density (690 nm),"[2]; 0.052 mmol/l, 210 min",0.225
same,Optical density (690 nm),"[2]; 0.052 mmol/l, 240 min",0.408
same,Inhibitory effect on the growth of E. coli (in words),[2]; 0.105 mmol/l,no retarded growth; also recorded: does not inhibit E. coli growth
same,Optical density (690 nm),"[2]; 0.105 mmol/l, 0 min",0.000
same,Optical density (690 nm),"[2]; 0.105 mmol/l, 30 min",0.000
same,Optical density (690 nm),"[2]; 0.105 mmol/l, 60 min",0.002
same,Optical density (690 nm),"[2]; 0.105 mmol/l, 90 min",0.008
same,Optical density (690 nm),"[2]; 0.105 mmol/l, 120 min",0.026
same,Optical density (690 nm),"[2]; 0.105 mmol/l, 150 min",0.068
same,Optical density (690 nm),"[2]; 0.105 mmol/l, 180 min",0.164
same,Optical density (690 nm),"[2]; 0.105 mmol/l, 210 min",0.227
same,Optical density (690 nm),"[2]; 0.105 mmol/l, 240 min",0.416
same,Optical density (690 nm),"[2]; 0.157 mmol/l, 0 min",0.000
same,Optical density (690 nm),"[2]; 0.157 mmol/l, 30 min",−0.001
same,Optical density (690 nm),"[2]; 0.157 mmol/l, 60 min",0.002
same,Optical density (690 nm),"[2]; 0.157 mmol/l, 90 min",0.009
same,Optical density (690 nm),"[2]; 0.157 mmol/l, 120 min",0.027
same,Optical density (690 nm),"[2]; 0.157 mmol/l, 150 min",0.073
same,Optical density (690 nm),"[2]; 0.157 mmol/l, 180 min",0.151
same,Optical density (690 nm),"[2]; 0.157 mmol/l, 210 min",0205
same,Optical density (690 nm),"[2]; 0.157 mmol/l, 240 min",0.372
same,Optical density (690 nm),"[2]; 0.210 mmol/l, 0 min",0.000
same,Optical density (690 nm),"[2]; 0.210 mmol/l, 30 min",0.000
same,Optical density (690 nm),"[2]; 0.210 mmol/l, 60 min",0.003
same,Optical density (690 nm),"[2]; 0.210 mmol/l, 90 min",0.010
same,Optical density (690 nm),"[2]; 0.210 mmol/l, 120 min",0.027
same,Optical density (690 nm),"[2]; 0.210 mmol/l, 150 min",0.072
same,Optical density (690 nm),"[2]; 0.210 mmol/l, 180 min",0.138
same,Optical density (690 nm),"[2]; 0.210 mmol/l, 210 min",0.187
same,Optical density (690 nm),"[2]; 0.210 mmol/l, 240 min",0.346
same,Optical density (690 nm),"[2]; 0.262 mmol/l, 0 min",0.000
same,Optical density (690 nm),"[2]; 0.262 mmol/l, 30 min",0.000
same,Optical density (690 nm),"[2]; 0.262 mmol/l, 60 min",0.002
same,Optical density (690 nm),"[2]; 0.262 mmol/l, 90 min",0.009
same,Optical density (690 nm),"[2]; 0.262 mmol/l, 120 min",0.027
same,Optical density (690 nm),"[2]; 0.262 mmol/l, 150 min",0.069
same,Optical density (690 nm),"[2]; 0.262 mmol/l, 180 min",0.144
same,Optical density (690 nm),"[2]; 0.262 mmol/l, 240 min",0.346
same,Effect of the concentration on E. coli growth (in words),[2]; concentrations from 0 to 0.262 mmol/l,no significant effect
same,Fluorescence reading,[3]; dilution 10^−3,2847
same,Fluorescence reading,[3]; dilution 10^−4,2609
same,Fluorescence reading,[3]; dilution 10^−5,2335
same,Fluorescence reading,[3]; dilution 10^−6,2041
same,Fluorescence reading,[3]; dilution 10^−7,1693
same,Fluorescence reading,[3]; dilution 10^−8,1745
same,Fluorescence reading,[3]; dilution 10^−9,1693
same,Fluorescence reading,[3]; dilution 10^−10,1751
same,Fluorescence reading,[3]; dilution 10^−11,1666
same,Fluorescence reading,[3]; dilution 10^−12,1702
same,Fluorescence reading,[3]; dilution 10^−13,1666
same,Fluorescent signal compared with bacteria (in words),"[3]; RPMI medium, results not presented",comparable to that generated by the bacteria
same,Fluorescent signal compared with bacteria (in words),[3]; Trypticase Soy broth,only a faint fluorescent signal
